Tests used:
IL-6 = IL-6 secretion by bone marrow-derived dendritic cells, ELISA; type: cell-based, mouse; conditions: different concentrations of ascr#7
Procedure: (§1) Bone marrow was extracted from femurs of C57BL/6 mice (6-12 weeks of age). These mice were euthanized by CO2 inhalation and their femurs were removed. After removing the remaining flesh from the bone, they were cut at the metaphysis. Bone marrow was flushed out using a syringe filled with RPMI. The extracted marrow was further broken down by resuspension with syringe. The mixture was centrifuged and the pellet was re-suspended in RPMI. […] 20 ng of GM-CSF was added to each well. At day 3, and every 3 days thereafter, the media was replaced. Cells were used for experiments between day 7-9.
(§2) Bone marrow dendritic cells were collected between day 7-9 of culture. Cells were washed twice and counted. Ascr#7 in water or RPMI were placed in corresponding wells, and are allowed to dry. 10^6 cells were then plated in each well in a 24 well culture plate. Cells were left to incubate with ascr#7 for 5 minutes. Following the brief incubation, different TNFα was added to the wells. These bone marrow dendritic cells were then cultured at 37° C. for 18-72 hours. Cells were collected via the pellet generated by centrifuge. The supernatant was also preserved. EBioscience ELISA kits was used to determine the concentration of different cytokines present in each well.

IL-1β = IL-1β secretion by bone marrow-derived dendritic cells, ELISA; type: cell-based, mouse; conditions: different concentrations of ascr#7
Procedure: as §1, §2

[1] = system: ovalbumin model of murine asthma; experiment: ovalbumin model of murine asthma; type: in vivo, mouse; conditions: C57BL/6 mice
Procedure: Adult C57BL/6 mice were sensitized by administering 2 ug OVA (Sigma-Aldrich) and 1 mg alum (Thermo) with 50ng ascr#7 or saline, via intraperitoneal injection, on Day 0 and 14. On day 24, the mice were challenged with intranasal administration of saline containing 100 μg OVA, under isoflurane anesthesia. Histologic sections were stained with H&E or PAS to score for eosinophilia, goblet cell metaplasia, and airway hyper-reactivity. Mice were also placed in a computer controlled small animal ventilator (SCIREQ) to score for airway hyper-reactivity following methacholine challenge. […] Animals with asthma have higher resistance of flow, which would be represented as higher “RL” values in FIG. 3B-FIG. 3F. […] Lungs were collected, postmortem, and then sectioned and stained to show the presence of eosinophils and mucus. […] In FIG. 3G, the asthmatic mouse lung, here labeled “Asthma” has a large number of mucus and eosinophils that surround the bronchioles and occupy the alveolar space; wherein the thick barriers would prohibit oxygen from easily diffusing.

[2] = system: T cell transfer model of colitis; experiment: T cell transfer model of colitis (immune dysregulation model of inflammatory bowel disease); type: in vivo, mouse; conditions: Rag −/− mice, 300 ng ascr#7 intraperitoneal every 3 days between day 14 and day 28
Procedure: A T cell transfer model of colitis where 10^6 CD4+ T cells were transferred to adult Rag −/− mice was used, and either saline or 300 ng ascr#7 were administered via intraperitoneal injection every 3 days between day 14 and day 28. On day 28, the mice were euthanized and colon analysis was performed. n=3 mice per group. […] The normal mouse colon is long, skinny, and has discrete fecal pellets. The diseased mouse colon, with IBD, has a shortened, dilated colon, with diarrhea instead of discrete fecal pellets.

[3] = 50ng ascr#7 intraperitoneal on Day 0 and 14, H&E or PAS sections

SMILES: C[C@H](CC/C=C/C(=O)O)O[C@@H]1O[C@@H](C)[C@H](O)C[C@H]1O [ascr#7]
- IL-6 levels (IL-6; dendritic cells not stimulated with TNF-α, FIG. 1 left side): very low levels of IL-6
- secreted IL-6 levels (IL-6; dendritic cells stimulated with TNF-α, FIG. 1 right side): reduces these levels significantly
- IL-1β levels (IL-1β; dendritic cells not stimulated with TNF-α, FIG. 2 left side): very low levels of IL-1β
- secreted IL-1β levels (IL-1β; dendritic cells stimulated with TNF-α, FIG. 2 right side): reduces these levels significantly
- development of eosinophilia [1, 3]: reduces the development of
- development of goblet cell metaplasia [1, 3]: reduces the development of
- lung histology (eosinophils and mucus; boundaries between bronchioles and alveolar space) ([1]; 50ng ascr#7 intraperitoneal on Day 0 and 14, stained lung sections, FIG. 3G): thin boundaries between the bronchioles and the alveolar space, comparable to the normal mice
- resistance of air flow (RL), airway hyper-reactivity following methacholine challenge ([1]; 50ng ascr#7 intraperitoneal on Day 0 and 14 with OVA/alum, FIG. 3B-3F): low resistance of air flow, with comparable levels to normal mice
- development of abnormal lumen dilation [2]: markedly reduces the development of
- development of colon shortening [2]: markedly reduces the development of
- development of diarrhea [2]: markedly reduces the development of
- colon appearance (length, dilation, fecal pellets) ([2]; colon analysis day 28, FIG. 4): normal appearing colon, which is long, skinny, and contains discrete fecal pellets
